# Assay results: patent US8637512B2, “Formulations and method of treatment” (Glaxo Group Limited, priority 2002, dated 2014)
# What was measured:
# [1] = cited from earlier work
# [2] = Regional absorption study in the gastrointestinal tract; type: in vivo
# Text: Until recently, it was not known where, in the gastrointestinal tract, lamotrigine is absorbed. In carrying out a regional absorption study it has recently been discovered that the extent of absorption of lamotrigine is consistent when the drug is delivered to any point in the gastrointestinal tract between the stomach and the ascending colon. The extent of absorption is also equivalent whether the drug is delivered as a solid or as a solution.
# [3] = stomach versus lower regions of the gastrointestinal tract; cited from earlier work
structure (smiles),measurement,setting,value
"Nc1nnc(-c2cccc(Cl)c2Cl)c(N)n1 [Lamotrigine, 3,5-diamino-6-(2,3-dichlorophenyl)-1,2,4-triazine]",absorption after oral administration,[1],rapidly and completely absorbed
same,absolute bioavailability,[1]; oral administration,about 98%
same,effect of food on absolute bioavailability,[1]; oral administration,not affected by food
same,first pass metabolism,[1]; oral administration,negligible
same,"extent of absorption, solid versus solution",[2]; drug delivered as a solid or as a solution,equivalent
same,extent of absorption by site of delivery,[2]; drug delivered to any point in the gastrointestinal tract between the stomach and the ascending colon,consistent
same,solubility in the stomach compared to lower regions of the gastrointestinal tract,[3],higher
